Measurements: PubChem BioAssay (NCI)
Values joined by “and” are separate entries in the source; they are usually repeats but may differ in a detail not shown here. Equal values may be shown once.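 In this assay, cells in 96-well plates receive the compound at five concentrations for 48 hours. Endpoints are linearly interpolated between the surrounding concentrations. Here, GI50 denotes the concentration required for 50% inhibition of growth. TGI is the concentration that stops growth completely.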

How the values were obtained:
Experiment in all cases: NCI tumour cell line growth inhibition, 48 h
SF-268 CNS = test system: SF-268 CNS
NCI-H23 lung = test system: NCI-H23 lung
MOLT-4 leukemia = test system: MOLT-4 leukemia
OVCAR-4 ovarian = test system: OVCAR-4 ovarian
HCT-15 colon = test system: HCT-15 colon
SK-MEL-28 melanoma = test system: SK-MEL-28 melanoma
HCT-116 colon = test system: HCT-116 colon
BT-549 breast = test system: BT-549 breast
SR leukemia = test system: SR leukemia
K-562 leukemia = test system: K-562 leukemia

SMILES	GI50 (SF-268 CNS)	TGI (SF-268 CNS) [µM]	GI50 (NCI-H23 lung)	TGI (NCI-H23 lung)	GI50 (MOLT-4 leukemia)	TGI (MOLT-4 leukemia)	GI50 (OVCAR-4 ovarian)	TGI (OVCAR-4 ovarian)	GI50 (HCT-15 colon)	TGI (HCT-15 colon) [µM]	GI50 (SK-MEL-28 melanoma)	TGI (SK-MEL-28 melanoma)	GI50 (HCT-116 colon)	TGI (HCT-116 colon) [µM]	GI50 (BT-549 breast)	TGI (BT-549 breast)	GI50 (SR leukemia)	TGI (SR leukemia)	GI50 (K-562 leukemia)	TGI (K-562 leukemia) [µM]
Cn1cc(-c2cnc3ccc4ccc(CS(=O)(=O)NCc5ccccn5)cc4c(=O)c3c2)cn1	20.9 µM	> 100	16.2 µM	> 84.7 µM	9.09 µM	52.5 µM	10.3 µM	68.1 µM	5.67 µM	37.1	15 µM	35.4 µM	16.3 µM	54.1	12.4 µM	42.6 µM	3.17 µM	> 100 µM	4.78 µM	> 100
Cc1cc(Nc2ncnc3ccc(NC4=NC(C)(C)CO4)cc23)ccc1Oc1ccn2ncnc2c1	18.9 µM and > 10 µM	> 91.9	17 µM and > 10 µM	41.7 µM and > 10 µM	14.6 µM and > 10 µM	42.2 µM and > 10 µM	15.1 µM and > 10 µM	99 µM and > 10 µM	8.92 µM and > 10 µM	> 65.9	13.2 µM and > 10 µM	29.3 µM and > 10 µM	21.1 µM and > 10 µM	> 80.1	14.1 µM and > 10 µM	39.5 µM and > 10 µM	14.7 µM and > 10 µM	43.8 µM and > 10 µM	17.1 µM and > 10 µM	> 100
C=C1C(=O)O[C@H]2[C@H]1CC/C(COC(=O)NCCc1c[nH]c3ccc(OC)cc13)=C\CC[C@@]1(C)O[C@@H]21	3 µM	13.1	2.25 µM	5.84 µM	2.22 µM	5.88 µM	1.69 µM	5.09 µM	1.14 µM	2.45	1.65 µM	3.22 µM	1.46 µM	3.11	1.4 µM	3.13 µM	1.02 µM	9.33 µM	0.453 µM	3.29
O=C(Nc1ccccc1O)c1ccc(Oc2cccc(C(=O)Nc3ccccc3O)c2)cc1	2.91 µM	15	2.99 µM	11.3 µM	0.767 µM	6.85 µM	2.42 µM	9.03 µM	2.52 µM	12.3	1.84 µM	12.2 µM	2.84 µM	10.4	2.53 µM	27 µM	0.56 µM	11.4 µM	0.819 µM	> 100
C=CCC1(O)c2cccc(NCCO)c2C(=O)c2c(NCCO)cccc21	> 100 µM	> 100	> 100 µM	> 100 µM	> 100 µM	> 100 µM	> 100 µM	> 100 µM	> 100 µM	> 100	> 100 µM	> 100 µM	> 100 µM	> 100	> 100 µM	> 100 µM	> 100 µM	> 100 µM	> 100 µM	> 100
O=C(O)c1cc2cc(OCc3ccccc3)c(OCc3ccccc3)cc2[nH]1	26.4 µM	79.7	17.2 µM	38.1 µM	25 µM	> 100 µM	34.9 µM	> 100 µM	16.3 µM	36.4	19.5 µM	43.2 µM	17.1 µM	30.8	18.5 µM	35.6 µM	21.8 µM	> 100 µM	29.3 µM	> 100
O=C(O)c1cc(N=Cc2ccccc2O)cc(C(=O)O)c1	–	> 100	–	> 100 µM	–	> 100 µM	–	> 100 µM	–	> 100	–	> 100 µM	–	> 100	–	> 100 µM	–	> 100 µM	–	> 100
COc1cccc2c1C(=O)c1c(O)c3c(c(O)c1C2=O)C[C@@](O)(C(=O)CO)C[C@@H]3OC1C[C@H](N)[C@H](O)[C@H](C)O1 (stereo partly specified)	0.0616 µM	0.982	0.0484 µM	0.234 µM	–	0.105 µM	0.133 µM	2.9 µM	0.906 µM	> 50	0.0797 µM	0.198 µM	0.036 µM	0.212	0.059 µM	0.241 µM	0.00558 µM	0.826 µM	0.089 µM	3.18
CN1CCN(Cc2ccc(NC(=O)c3ccc(C#Cc4c(N)ncc5ccc(F)cc45)cc3)cc2C(F)(F)F)CC1	0.948 µM	2.14	0.968 µM	1.89 µM	0.799 µM	1.74 µM	1.48 µM	5.83 µM	0.892 µM	1.74	1.01 µM	1.74 µM	–	–	3.19 µM	9.68 µM	0.897 µM	2.32 µM	0.677 µM	1.87
COc1cc(/C=C2\CCC(CN(C)C)C2=O)ccc1OC(=O)c1ccccc1 (stereo unspecified)	–	27.5	–	36.7 µM	–	7.03 µM	–	25.5 µM	–	20.4	–	29.2 µM	–	22.1	–	30 µM	–	6.97 µM	–	9.04
CN(C)C(=O)c1cc2cnc(Nc3ccc(-c4csc5c(=O)cc(N6CCOCC6)oc45)cc3)nc2n1C1CCCC1	0.222 µM	–	0.182 µM	0.87 µM	0.23 µM	3.26 µM	0.293 µM	> 53.7 µM	0.224 µM	1.35	0.207 µM	0.869 µM	0.169 µM	0.815	0.166 µM	0.686 µM	0.101 µM	> 80 µM	0.285 µM	> 100
O=C(Nc1ccc(Cl)cc1)c1cc(-c2ccc(Cl)cc2)c2sc(=O)[nH]c2n1	2.56 µM	22.3	1.24 µM	6.85 µM	2.52 µM	11.8 µM	2.02 µM	9.98 µM	1.27 µM	9.54	1.57 µM	17.8 µM	2.4 µM	10.8	2.08 µM	6.88 µM	3.63 µM	> 100 µM	1.27 µM	> 100
COC(=O)[C@]12CC[C@@H](C)[C@H](C)[C@@H]1C1=CC[C@@H]3[C@@]4(C)C=C(O)C(=O)[C@@]5(C)COC(=C54)C[C@@]3(C)[C@]1(C)CC2	13.3 µM	31.6	4.19 µM	18.2 µM	2.21 µM	6.52 µM	8.32 µM	23.5 µM	11.6 µM	26.6	16.4 µM	38.9 µM	9.49 µM	22.9	7.96 µM	25.8 µM	2.69 µM	8.77 µM	3.12 µM	13.8
